In brackets after ≈: the same amount, converted by molar mass. Like-named read-outs stand apart in the source and are kept apart here. No end group written: not given here.
Legend:
S. aureus TISTR 517 [1] = assay: Agar well diffusion assay; assay type: cell-based, Staphylococcus aureus; conditions: mean ± SD, n = 3
Protocol: (§1) WUL10 colony was inoculated in 50 mL of half formula of Luria-Bertani (half LB) broth (Titan Biotech Ltd., Rajasthan, India), and incubated at 30 °C, 150 rpm overnight. The culture was adjusted the turbidity equivalent to 0.5 McFarland standard by 0.85% NaCl, and then, 2 mL of this preculture was transferred in 200 mL of half LB broth. The culture was shaken at 30 °C, 150 rpm for 7 days, and an aliquot of samples (2 mL) was collected at different time interval. One mL of sample was measured the cell growth by spectrophotometer at 625 nm (Thermo Fisher Scientific, Waltham, MA, USA). The remaining sample was centrifuged at 10,000× g, 4 °C for 30 min (Sigma-Aldrich Co., St. Louis, MO, USA), and the CFS was examined for the antimicrobial activity against all indicator strains by agar well diffusion assay. Three replicates of experiments were carried out, and the zone of inhibition was reported as mean ± SD.
(§2) The colonies of indicator strains were inoculated in 9 mL of sterile 0.85% NaCl, and the cell suspensions were adjusted the turbidity comparably to 0.5 McFarland standard. They were swabbed onto the MH agar, and the wells were punched onto the agar using a pipette tip. One hundred µL of CSF or purified substance of WUL10 was loaded into each well, and the plates were incubated at 37 °C for 24 h. […] The experiments were performed in three independent experiments, and the inhibition zone was measured and reported as mean ± SD [21].

MRSA isolate 1096 [2] = assay: Agar well diffusion assay; assay type: cell-based, Staphylococcus aureus; conditions: Table 1 experiment, mean ± SD, n = 3
Protocol: as §1, §2

MRSA isolate 142 [3] = assay: Agar well diffusion assay; assay type: cell-based, Staphylococcus aureus; conditions: Table 1 experiment, mean ± SD, n = 3
Protocol: as §1, §2

MRSA isolate 2468 [4] = assay: Agar well diffusion assay; assay type: cell-based, Staphylococcus aureus; conditions: mean ± SD, n = 3
Protocol: as §1, §2

S. aureus TISTR 517 [5] = assay: microbe, parasite or virus in culture; assay type: cell-based, Staphylococcus aureus
Protocol: (§3) Determination of MIC by broth microdilution was followed the Clinical and Laboratory Standard Institute (CLSI) guidelines. Cation-adjusted Mueller–Hinton broth (CAMHB) was used as a diluent. The purified substance (100 μL) was prepared by making the 2-fold dilution in the range of 0.125–32 μg/mL, and an aliquot (10 μL) of diluted suspension of the indicator strains (5 × 10^5 CFU/mL) was added into each well. Indicator strains without sample were a positive control, while CAMHB alone was the negative control. The 96-well plates were incubated at 37 °C for 24 h and measured the bacterial growth. […] MBC was determined by further spreading 10 µL of sample in each well on MH agar and incubated at 37 °C overnight.
(§4) The peptide sequence of the purified substance of WUL10 was analyzed by the Q-Exactive HF LC-MS/MS Orbitrap system. Briefly, the protonated peptides were first desalted on-line on a reverse-phase C18 PepMap 100 trapping column before being resolved onto a C18 PepMap 100 capillary column with a 70 min gradient of 0.1% HCO2H/H2O (mobile phase (MP): A) and 0.1% HCO2H/CH3CN (MP: B) at a flow rate of 300 nL/min. Peptides were analyzed by applying a data-dependent Top5 acquisition mode followed by a higher-energy collisional dissociation (HCD) at collision energy of 28. Full-scan (MS) mass spectra were acquired from m/z 400 to 2000 with an AGC target set at 3 × 10^6 ions and a resolution of 120,000. MS/MS scan was initiated when the ACG target reached 2 × 10^5 ions and a resolution of 30,000. The raw LC-MS file from LC-MS/MS was imported to PeakX studio 10.0 (Bioinformatics Solutions Inc., Waterloo, CA, USA). The peptide ion intensity with +2 to +5 charge states was automated de novo peptide sequenced with default parameters with minor modifications. Briefly, mass error tolerance for MS and MS/MS were 15 ppm and 0.1 Da, respectively. HCD-fragmentation series on b- and y-ion series were used to predict the peptide sequence. The confidence score was set at the high level of confidence to obtain a reliable set of high-precision peptides. The acceptable de novo peptide sequences were achieved by filtering average local confidence (ALC) to ≥50%. The acceptable peptide sequences with an average local confidence (ALC) threshold of ≥50% were submitted to the antimicrobial peptide scanner to analyze the probability of antimicrobial peptides. A number of resulting peptides (18 synthetic peptides) were synthesized by Kelowna International Scientific Inc. (Taipei City, Taiwan) with purity of more than 85%, and they were prepared in a 2-fold dilution with CAMHB before examining the antimicrobial activity by broth microdilution. MIC and MBC were measured from 3 independent replicates.

MRSA isolate 2468 [6] = assay: microbe, parasite or virus in culture; assay type: cell-based, Staphylococcus aureus
Protocol: as §3, §4

MRSA isolate 1096 [7] = assay: Broth microdilution MIC and MBC (CLSI); assay type: cell-based; conditions: Staphylococcus aureus
Protocol: as §3

MRSA isolate 142 [8] = assay: Broth microdilution MIC and MBC (CLSI); assay type: cell-based; conditions: Staphylococcus aureus
Protocol: as §3

[9] = antibiotic 30 µg, Table 1 experiment
[10] = antibiotic 30 µg, Table 4 experiment
[11] = antibiotic 1 µg, Table 1 experiment
[12] = broth microdilution, CAMHB, 37 °C 24 h, n = 3

CO[C@@]1(NC(=O)Cc2cccs2)C(=O)N2C(C(=O)O)=C(COC(N)=O)CS[C@@H]21 [Cefoxitin]
Zone of Inhibition (S. aureus TISTR 517 [1]; [9]): 32.68 ± 0.15 mm | Zone of Inhibition (S. aureus TISTR 517 [1]; [10]): 32.77 ± 0.55 mm | Zone of Inhibition (MRSA isolate 1096 [2]; antibiotic 30 µg): 0.00 ± 0.00 mm | Zone of Inhibition (MRSA isolate 142 [3]; antibiotic 30 µg): 0.00 ± 0.00 mm | Zone of Inhibition (MRSA isolate 2468 [4]; [9]): 0.00 ± 0.00 mm | MIC (S. aureus TISTR 517 [5]; Staphylococcus aureus, TISTR517, broth microdilution, CAMHB, 37 °C 24 h, n = 3, read-out: MIC): 2 µg/mL (≈ 4.68 µM)

Cc1onc(-c2ccccc2)c1C(=O)N[C@@H]1C(=O)N2[C@@H]1SC(C)(C)[C@@H]2C(=O)O [Oxacillin]
Zone of Inhibition (S. aureus TISTR 517 [1]; [11]): 29.29 ± 0.39 mm | Zone of Inhibition (MRSA isolate 1096 [2]; antibiotic 1 µg): 0.00 ± 0.00 mm | Zone of Inhibition (MRSA isolate 142 [3]; antibiotic 1 µg): 0.00 ± 0.00 mm | Zone of Inhibition (MRSA isolate 2468 [4]; [11]): 0.00 ± 0.00 mm

CN[C@H](CC(C)C)C(=O)N[C@H]1C(=O)N[C@@H](CC(N)=O)C(=O)N[C@H]2C(=O)N[C@H]3C(=O)N[C@H](C(=O)N[C@H](C(=O)O)c4cc(O)cc(O)c4-c4cc3ccc4O)[C@H](O)c3ccc(c(Cl)c3)Oc3cc2cc(c3O[C@@H]2O[C@H](CO)[C@@H](O)[C@H](O)[C@H]2O[C@H]2C[C@](C)(N)[C@H](O)[C@H](C)O2)Oc2ccc(cc2Cl)[C@H]1O [Vancomycin]
Zone of Inhibition (MRSA isolate 2468 [4]; [10]): 26.75 ± 0.18 mm | MBC (S. aureus TISTR 517 [5]; Staphylococcus aureus, TISTR517): 2 µg/mL (≈ 1.38 µM) | MIC (S. aureus TISTR 517 [5]; Staphylococcus aureus, TISTR517, 24 h): 2 µg/mL (≈ 1.38 µM) | MBC (MRSA isolate 2468 [6]; Staphylococcus aureus): 2 µg/mL (≈ 1.38 µM) | MIC (MRSA isolate 2468 [6]; Staphylococcus aureus, 24 h): 2 µg/mL (≈ 1.38 µM) | MBC (MRSA isolate 1096 [7]): 2 µg/mL (≈ 1.38 µM) | MIC (MRSA isolate 1096 [7]; 24 h): 2 µg/mL (≈ 1.38 µM) | MBC (MRSA isolate 142 [8]): 2 µg/mL (≈ 1.38 µM) | MIC (MRSA isolate 142 [8]; 24 h): 2 µg/mL (≈ 1.38 µM)

KVLVKYLGGLLKLAALMV [synthetic peptide]
MIC (S. aureus TISTR 517 [5]; [12]): 16 µg/mL | MIC (MRSA isolate 2468 [6]; [12]): 16 µg/mL

— article PMC9228811, “Identification and Characterization of a Potential Antimicrobial Peptide Isolated from Soil Brevibacillus sp. WUL10 and Its Activity against MRSA Pathogens” (Tropical Medicine and Infectious Disease, 2022)
